Data published in patent US20220315624A1, “THIOSTREPTON ANALOGS AND METHODS OF MAKING AND USING SAME” (YALE UNIVERSITY, priority 2019, published 2022).
In brackets after ≈: the same amount, converted by molar mass.

Assays:
[1] = Un-inoculated solubility control plate (drug precipitation); assay type: physicochemical; conditions: at 64 μg/mL in CAMHB
[2] = Aqueous solubility analysis in MOPS buffer; assay type: physicochemical; conditions: aqueous 10 mM MOPS buffer, thermodynamic from solid; after 24 hours in 10 mM aqueous MOPS buffer, pH 7.2
Experimental: A 2 dram vial was loaded with ˜0.5 mg of a thiostrepton derivative and suspended in ˜4 mL of aqueous 10 mM MOPS buffer (pKa 7.2). The suspension was stirred vigorously for 24 h to ensure equilibration, then filtered through a […] centrifuge filtration unit. A 3.0 mL aliquot was concentrated, and the dried residue was diluted with 0.30 mL of 1:1 1,4-dioxane/H2O (10× original concentration necessitated by detection limits). The total UV absorbance (200-300 nm) was measured in triplicate by UPLC runs with a photodiode array detector. A calibration curve for each compound was created using data points from 3 trials each of concentrations in 1:1 1,4-dioxane/H2O ranging from […]. These concentrations were plotted against their respective average absorbances. The experimental concentration of each compound was calculated by dividing the found μg/mL value by the residue concentration factor of 10 to yield the actual solubility value.

[3] = system: E. faecalis MMX 486 VRE; test: MIC broth microdilution; assay type: cell-based; conditions: Enterococcus faecalis; E. faecalis MMX 486 VRE; CAMHB; read-out: MIC
Experimental: (§1) Twenty-four test agents were shipped to Micromyx and stored at −20° C. until assayed. The compounds were dissolved in 100% DMSO at 6.46 mg/mL prior to testing. Comparator drugs were supplied by Micromyx and were handled as described below:
(§2) The test organisms for the assay were recent clinical isolates or reference strains acquired from the American Type Culture Collection (ATCC; Manassas, Va.). Upon receipt, the isolates were streaked onto Trypticase Soy Agar II+5% sheep blood (TSAB). Colonies were harvested from the plates and a cell suspension was prepared in Trypticase Soy Broth containing cryoprotectant. Aliquots were then frozen at −80° C. Prior to the assay, the frozen seeds of all bacterial isolates to be tested were thawed and streaked for isolation onto TSAB (BD/BBL, Sparks, Md.; Lot No. 9011894), and were incubated overnight at 35° C.
(§3) The test medium for all isolates was cation-adjusted Mueller Hinton broth (CAMHB; BD/BBL; Lot No. 8190586). CAMHB (Cation Adjusted Mueller Hinton Broth) was supplemented with 3% (v/v) lysed horse blood (LHB; Hemostat, Dixon, Calif.; Lot No. 474990) for the testing of streptococci.
(§4) MIC values were determined using a broth microdilution method as recommended by CLSI. Automated liquid handlers (Multidrop 384, Labsystems, Helsinki, Finland; Biomek 2000 and Biomek F/X, Beckman Coulter, Fullerton Calif.) were used to conduct serial dilutions and make liquid transfers.
(§5) The wells of standard 96-well microdilution plates (Costar 3795, Corning Inc., Corning, N.Y.) were filled with 150 μL of the appropriate diluent in columns 2-12 on the Multidrop 384 (DMSO for the thiostrepton analogs, deionized H2O for vancomycin and ceftazidime). These plates were used to prepare the drug “mother plate” which provided the serial drug dilutions for the replicate “daughter plates”. The compounds (300 μL) were dispensed at 101× the highest concentration to be tested into the appropriate row of the “mother plate”. The Biomek 2000 was used to transfer 150 μL of each stock solution from the wells in Column 1 of the mother plate to make ten subsequent 2-fold serial dilutions. The wells of Column 12 contained no drug and served as the organism growth control wells. The daughter plates were loaded with 190 μL of test medium using the Multidrop 384.
(§6) The daughter plates were prepared on the Biomek F/X instrument which transferred […] of drug solution from each well of the mother plate to each corresponding well of each daughter plate in a single step. The wells of the daughter plates ultimately contained 190 μL of media, 2 μL of drug solution, and 10 μL of inoculum prepared as described below. The final concentration of DMSO (if used as a solvent) in the test well was 1%.
(§7) A standardized inoculum of each organism was prepared per CLSI methods. A suspension of organisms from a fresh plate was prepared in CAMHB to equal the turbidity of a 0.5 McFarland standard. The suspensions were diluted 1:20 in CAMHB, or in the case of streptococci CAMHB with LHB. The inoculum for each organism was dispensed into sterile reservoirs divided by length (Beckman Coulter), and the Biomek 2000 was used to inoculate the plates. Daughter plates were placed on the Biomek 2000 work surface reversed so that inoculation took place from low to high drug concentration. The Biomek 2000 delivered 10 μL of standardized inoculum into each well. These dilutions yielded a final cell concentration in the daughter plates of approximately 5.0×10^5 CFU/mL.
(§8) Plates were stacked 3 high, covered with a lid on the top plate, placed in plastic bags, and incubated at 35° C. for 16-20 hr for all organisms except streptococci which were incubated for 20-24 hr. Following incubation, the microplates were removed from the incubator and viewed from the bottom using a plate viewer. The MIC was read and recorded as the lowest concentration of drug that inhibited visible growth of the organism. […]

[4] = system: S. pneumoniae ATCC 49619 PISP; test: MIC broth microdilution; assay type: cell-based; conditions: Streptococcus pneumoniae, ATCC49619, 20 h; S. pneumoniae ATCC 49619 PISP; CAMHB with 3% lysed horse blood; read-out: MIC
Experimental: as §1, §2, §3, §4, §5, §6, §7, §8

[5] = system: S. pyogenes ATCC 19615; test: MIC broth microdilution; assay type: cell-based; conditions: Streptococcus pyogenes, ATCC19615, 20 h; S. pyogenes ATCC 19615; CAMHB with 3% lysed horse blood; read-out: MIC
Experimental: as §1, §2, §3, §4, §5, §6, §7, §8

[6] = system: E. coli ATCC 25922; test: MIC broth microdilution; assay type: cell-based; conditions: Escherichia coli, ATCC25922; E. coli ATCC 25922; CAMHB; read-out: MIC
Experimental: as §1, §2, §3, §4, §5, §6, §7, §8

[7] = system: S. aureus MMX 8088 MRSA; test: MIC broth microdilution; assay type: cell-based; conditions: Staphylococcus aureus; S. aureus MMX 8088 MRSA; CAMHB; read-out: MIC
Experimental: as §1, §2, §3, §4, §5, §6, §7, §8

[8] = system: E. faecalis ATCC 29212 VSE; test: MIC broth microdilution; assay type: cell-based; conditions: Enterococcus faecalis, ATCC29212; E. faecalis ATCC 29212 VSE; CAMHB; read-out: MIC
Experimental: as §1, §2, §3, §4, §5, §6, §7, §8

[9] = system: E. faecium MMX 485 VRE; test: MIC broth microdilution; assay type: cell-based; conditions: Enterococcus faecium; E. faecium MMX 485 VRE; CAMHB; read-out: MIC
Experimental: as §1, §2, §3, §4, §5, §6, §7, §8

[10] = system: E. faecium MMX 708 VSE; test: MIC broth microdilution; assay type: cell-based; conditions: Enterococcus faecium, MMX708VSE; E. faecium MMX 708 VSE; CAMHB; read-out: MIC
Experimental: as §1, §2, §3, §4, §5, §6, §7, §8

[11] = system: S. aureus ATCC 29213 MSSA; test: MIC broth microdilution; assay type: cell-based; conditions: Staphylococcus aureus; S. aureus ATCC 29213 MSSA; CAMHB; read-out: MIC
Experimental: as §1, §2, §3, §4, §5, §6, §7, §8

[12] = system: S. aureus isolates; test: MIC broth microdilution, S. aureus isolates; assay type: cell-based; conditions: Staphylococcus aureus; across MSSA and MRSA isolates; read-out: MIC values against S. aureus isolates
Experimental: as §1, §2, §3, §4, §5, §6, §7, §8

[13] = system: Gram-positive cocci; test: MIC broth microdilution, overall summary; assay type: cell-based; conditions: summary of MIC testing
Experimental: as §1, §2, §3, §4, §5
The daughter plates were prepared on the Biomek F/X instrument which transferred […] of drug solution from each well of the mother plate to each corresponding well of each daughter plate in a single step. […]
as §8, with “Following incubation, the microplates were removed from the incubator and viewed from the bottom using a plate viewer.” left out

[14] = system: E. faecalis and E. faecium; test: MIC broth microdilution, summary over enterococci; assay type: cell-based; conditions: across the evaluated enterococci, VSE and VRE; read-out: MIC values against E. faecalis and E. faecium
Experimental: as §1, §2, §3, §4, §5, §6, §7, §8

Precipitation in CAMHB [1]	solubility at 24 h [2] [µg/mL]	MIC [3] [µg/mL]	MIC [4] [ng/mL]	MIC [5] [ng/mL]	MIC [6] [µg/mL]	MIC [7] [µg/mL]	MIC [8] [µg/mL]	MIC [9] [µg/mL]	MIC [10] [µg/mL]	MIC [11] [µg/mL]	MIC [12] [µg/mL]	MIC [14] [µg/mL]	Structure (SMILES)	Activity among the evaluated analogs / against evaluated Gram-positive cocci (summary in words) [13]
distinct precipitation	16.2 (≈ 9.26 µM)	1 (≈ 0.571 µM)	4 (≈ 0.00229 µM)	4 (≈ 0.00229 µM)	> 64	0.5 (≈ 0.286 µM)	0.5 (≈ 0.286 µM)	0.25 (≈ 0.143 µM)	1 (≈ 0.571 µM)	0.5 (≈ 0.286 µM)	0.25 to 0.5 (≈ 0.143 to 0.286 µM)	–	C=C(NC(=O)c1csc(C2=N[C@@H]3c4csc(n4)[C@H]4NC(=O)c5csc(n5)[C@H]([C@](C)(O)[C@@H](C)O)NC(=O)C5CSC(=N5)/C(=C/C)NC(=O)[C@H]([C@@H](C)O)NC(=O)c5csc(n5)[C@]3(CC2)NC(=O)[C@H](C)NC(=O)C(=C)NC(=O)[C@H](C)NC(=O)[C@H]([C@@H](C)CC)N[C@@H]2C=Cc3c([C@H](C)O)cc(nc3[C@H]2O)C(=O)O[C@@H]4C)n1)C(=O)NC(=CNC(=O)C(C)C)C(N)=O [RJS-04]	–
distinct precipitation	< 1	0.25 (≈ 0.137 µM)	< 1	2 (≈ 0.0011 µM)	> 64	0.5 (≈ 0.275 µM)	0.25 (≈ 0.137 µM)	0.12 (≈ 0.066 µM)	0.25 (≈ 0.137 µM)	0.25 (≈ 0.137 µM)	0.25 to 0.5 (≈ 0.137 to 0.275 µM)	0.12 to 0.25 (≈ 0.066 to 0.137 µM)	C=C(NC(=O)c1csc(C2=N[C@@H]3c4csc(n4)[C@H]4NC(=O)c5csc(n5)[C@H]([C@](C)(O)[C@@H](C)O)NC(=O)C5CSC(=N5)/C(=C/C)NC(=O)[C@H]([C@@H](C)O)NC(=O)c5csc(n5)[C@]3(CC2)NC(=O)[C@H](C)NC(=O)C(=C)NC(=O)[C@H](C)NC(=O)[C@H]([C@@H](C)CC)N[C@@H]2C=Cc3c([C@H](C)O)cc(nc3[C@H]2O)C(=O)O[C@@H]4C)n1)C(=O)NC(=CNC(=O)c1ccc(Cl)cc1)C(N)=O [RJS-09]	most activity
